Data taken from the NIST ThermoML archive (doi:10.1016/j.fluid.2004.09.013).

Conditions: for mass density: Fluid (supercritical or subcritical phases), Vibrating tube method; for vapor or sublimation pressure: Liquid

C/C=C/C [(E)-2-butene]
Conditions | mass density [kg/m3]
328.22 K, 39992 kPa | 620.09
333.22 K, 1143 kPa | 554.92
333.22 K, 5001 kPa | 564.29
333.22 K, 9997 kPa | 574.58
333.22 K, 15004 kPa | 583.44
333.22 K, 19992 kPa | 591.23
333.22 K, 25005 kPa | 598.27
333.22 K, 30004 kPa | 604.66
333.22 K, 35005 kPa | 610.54
333.22 K, 39985 kPa | 615.98
338.22 K, 1226 kPa | 548.04
338.22 K, 4986 kPa | 557.85
338.22 K, 10000 kPa | 568.81
338.22 K, 15000 kPa | 578.1
338.22 K, 20000 kPa | 586.27
338.22 K, 25000 kPa | 593.57
338.22 K, 29994 kPa | 600.18
338.22 K, 35008 kPa | 606.28
338.22 K, 39996 kPa | 611.89
343.22 K, 1315 kPa | 540.98
343.22 K, 29988 kPa | 595.68
343.22 K, 34990 kPa | 601.95
343.22 K, 39986 kPa | 607.75
343.23 K, 4999 kPa | 551.32
343.23 K, 10003 kPa | 562.95
343.23 K, 14999 kPa | 572.73
343.23 K, 19997 kPa | 581.25
343.23 K, 25007 kPa | 588.85
348.23 K, 1414 kPa | 533.71
348.23 K, 4992 kPa | 544.57
348.23 K, 10005 kPa | 556.98
348.23 K, 14992 kPa | 567.27
348.23 K, 19998 kPa | 576.19
348.23 K, 25013 kPa | 584.1
348.23 K, 29992 kPa | 591.18
348.23 K, 35003 kPa | 597.68
348.23 K, 39996 kPa | 603.63
353.23 K, 1522 kPa | 526.23
353.23 K, 4999 kPa | 537.68
353.23 K, 9984 kPa | 550.87
353.23 K, 14991 kPa | 561.76
353.23 K, 20002 kPa | 571.1
353.23 K, 25003 kPa | 579.31
353.23 K, 30000 kPa | 586.67
353.23 K, 35004 kPa | 593.37
353.23 K, 39995 kPa | 599.51
358.23 K, 1641 kPa | 518.52
358.23 K, 4984 kPa | 530.51
358.23 K, 10005 kPa | 544.73
358.23 K, 14998 kPa | 556.2
358.23 K, 20004 kPa | 565.97
358.23 K, 24987 kPa | 574.48
358.23 K, 29994 kPa | 582.12
358.23 K, 35007 kPa | 589.05
358.23 K, 39996 kPa | 595.37
363.23 K, 1765 kPa | 510.53
363.23 K, 5001 kPa | 523.21
363.23 K, 9988 kPa | 538.37
363.23 K, 14981 kPa | 550.47
363.23 K, 19993 kPa | 560.72
363.23 K, 25001 kPa | 569.62
363.23 K, 30001 kPa | 577.52
363.23 K, 34991 kPa | 584.64
363.23 K, 40008 kPa | 591.18
368.24 K, 1900 kPa | 502.25
368.24 K, 4996 kPa | 515.59
368.24 K, 9996 kPa | 531.94
368.24 K, 14998 kPa | 544.78
368.24 K, 19997 kPa | 555.48
368.24 K, 25002 kPa | 564.74
368.24 K, 29994 kPa | 572.92
368.24 K, 35003 kPa | 580.31
368.24 K, 39988 kPa | 587
373.23 K, 2021 kPa | 493.52
373.23 K, 4987 kPa | 507.69
373.23 K, 9991 kPa | 525.4
373.23 K, 14991 kPa | 538.98
373.23 K, 19999 kPa | 550.26
373.24 K, 24990 kPa | 559.83
373.24 K, 29992 kPa | 568.32
373.24 K, 34981 kPa | 575.91
373.24 K, 39982 kPa | 582.83
378.24 K, 2209 kPa | 484.69
378.24 K, 5019 kPa | 499.59
378.24 K, 10006 kPa | 518.69
378.24 K, 14990 kPa | 533.06
378.24 K, 20005 kPa | 544.87
378.24 K, 25019 kPa | 554.94
378.24 K, 30003 kPa | 563.71
378.24 K, 34996 kPa | 571.57
378.24 K, 40001 kPa | 578.7
383.24 K, 2379 kPa | 475.33
383.24 K, 5004 kPa | 490.95
383.24 K, 10000 kPa | 511.79
383.24 K, 14991 kPa | 527.07
383.24 K, 19991 kPa | 539.46
383.24 K, 24987 kPa | 549.92
383.24 K, 30002 kPa | 559.07
383.24 K, 34999 kPa | 567.19
383.24 K, 39984 kPa | 574.5
388.24 K, 2560 kPa | 465.51
388.24 K, 4995 kPa | 481.89
388.24 K, 9989 kPa | 504.7
388.24 K, 15004 kPa | 521.06
388.24 K, 20002 kPa | 534.05
388.24 K, 25003 kPa | 544.95
388.24 K, 29994 kPa | 554.4
388.24 K, 34999 kPa | 562.8
388.24 K, 39985 kPa | 570.33

Conditions | vapor or sublimation pressure [kPa]
336.87 K | 680.67
345.89 K | 842.53
354.94 K | 1035.4
363.31 K | 1235
372.35 K | 1486.5
376.81 K | 1618.2
381.64 K | 1778.4
385.75 K | 1920.4
